pEC50: −log10 of the molar value. Read-outs that look alike come from different tables or passages of the source.
Tests used:
[1] = target: T1, ShaI_delN (Drosophila melanogaster, UniProt P17971); assay: ShaI_delN clonal lines, FLIPR blue membrane potential dye, KCl depolarization; type: cell-based; details: both the ShaI_delN clonal lines and the control pcDNA3 cell line, FLIPR
T1 construct: expressed in transfected cells; host or cells: CHO
Method: ShaI_DelN C10 and C15 were tested for function on the FLIPR using the Molecular Devices blue membrane potential dye. The cells were seeded at 60K cells/well in 96-well Costar plates in complete media and assayed for function at 24 hrs. Depolarization with 15-60 mM KCl caused a 2-2.8 fold higher activity in the clonal line than the pcDNA control cell line (FIG. 5). Clone 10 had slightly higher activity than clone 15.
FIG. 5: ShaI_DelN clones tested on FLIPR with KCl depolarization. We also tested some known K-channel blockers on channel activity on the FLIPR (FIG. 6). […] The ShaI_delN clonal cell lines lost their GFP expression and assay window with cell passage. At passage 12, only 10-15% of the cell population was GFP positive.
The effects of barium (Ba2+) on ShaI_delN function were tested. Barium is known to inhibit some open rectifier and inward rectifier K-channel activities. Cells were dye loaded in the presence of BaCl2 for 1 hr at RT and assayed on the FLIPR using KCl depolarization for channel activation.

[2] = target: T2, Shaker channel plus H-kvβ A subunit (Drosophila melanogaster, UniProt P08510, INS512V); type: cell-based
T2 construct: expressed in transfected cells; host or cells: CHO-K1
Method: In order to detect the membrane depolarization elicited by KCl injection, the Membrane Potential sensitive dye was used both for FLIPR384 and […] experiments. Cells were analyzed in 384 clear-bottom black MPTs (MATRIX cat. #4324) by seeding 5000, 7500, 10000 cells/well 24 hrs before experiment. Plates were incubated with 40 μl/w of 0.625× membrane potential dye for 45-60 minutes at 37° C. or room temperature and measured at FLIPR instrument by injecting 10 μl/w of 5× antagonist (in the presence of 0.5% DMSO, as indicated) followed by 3-5 minutes fluorescence reading; then a second injection of 25 μl/w of 3× KCl in Standard Tyrode solution) was performed and fluorescence measured for further 3-4 minutes. In experiments with a single injection (agonist), plates were incubated with 20 μl/w of 1× dye and injected with 20 μl/w of 2× KCl in Standard Tyrode solution.
Kinetic data obtained from different well replicates were analyzed with FLIPR, Excel and Spotfire software, by calculating the Integral or Maximum-Minimum RFU values after the injection; the obtained means and standard deviations were utilized to create sigmoidal dose-response fits by GraphPad PRISM® or Spotfire software and to calculate EC50-IC50 values and Z′ factors.
FIG. 42. […]

[3] = target: T3, ShaI/KChIP (Drosophila melanogaster, UniProt P17971); assay: ShaI/KChIP FLIPR membrane potential assay, KCl depolarization; type: cell-based
T3 construct: expressed in transfected cells; subclone 18-13-20
T3 sequence (P17971 with tags, fused parts or gaps isoform P17971-1): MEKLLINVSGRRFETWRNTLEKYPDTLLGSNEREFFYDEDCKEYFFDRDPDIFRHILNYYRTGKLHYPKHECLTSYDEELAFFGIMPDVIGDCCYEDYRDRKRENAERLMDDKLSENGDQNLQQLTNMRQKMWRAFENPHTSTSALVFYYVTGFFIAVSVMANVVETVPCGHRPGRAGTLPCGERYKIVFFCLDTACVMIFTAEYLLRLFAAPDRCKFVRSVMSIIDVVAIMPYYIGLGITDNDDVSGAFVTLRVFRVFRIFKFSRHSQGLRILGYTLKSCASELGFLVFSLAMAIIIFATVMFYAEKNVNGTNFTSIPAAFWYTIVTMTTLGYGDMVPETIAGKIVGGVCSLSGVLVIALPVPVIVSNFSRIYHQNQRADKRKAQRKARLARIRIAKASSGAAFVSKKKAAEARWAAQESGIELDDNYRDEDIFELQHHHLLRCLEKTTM
Method: This assay uses two fluid additions to permit the detection of activators and antagonists in a single experiment (FIG. 17). In screening, test compounds are added in the first addition and allowed to incubate for three minutes. An activating dose of KCl is then introduced in the second addition and the fluorescence read for an additional three minutes. Controls are run for both additions.
Cells were dispensed in a 50 μl volume containing 7,500 cells into 384-well TC clear/black assay plates (Greiner 781091) using a Multidrop 384 dispenser, incubated at ambient temperature for one hour (to reduce edge effects), and incubated overnight at 37° C./5% CO2. The cells were assayed 18-24 hours after seeding, at which point they were just approaching confluency in the wells. Culture medium was removed by flicking and tapping it out of the plate, and cells were loaded with 20 ul/well of 1× blue membrane potential dye in assay buffer for 30 minutes at 25° C. After 30 minutes the assay plate was placed into the FLIPR and run using a two-addition protocol. The first addition (5×, 5 ul) contained 2.5% DMSO in assay buffer. The pipetting height was set at 15 and the speed 20. The plate was read for three minutes after this addition. The second addition (2×, 25 ul) was either assay buffer or 120 mM isometrically-substituted KCl (i.e., KCl substituted for NaCl on a 1:1 molar basis). The height was 20 and the speed 25. Aspirate speeds were set at the lowest values and no hold or expel volumes applied. The plate was read for an additional three minutes after the second addition. The exported statistics were typically configured as stat1=average of 190-200 (the interval just before the first addition) and stat2=maximum of 260-maximum allowed. Subtract bias was set at 1 and negative control correction was OFF. Z′ statistics (an index of “screenability”, Z′>0.5=single-pass screen) were calculated using the following formula: Z′=1−((3σmax+3σmin)/(Iμmax−μminI)).
FIG. 32: BIOMOL compounds—primary screening data. ScreenWorks screenshots showing primary FLIPR data for BIOMOL compound screening. ShaI/KChIP 20 cells were plated at 7500 cells/well in 384-well assay plates and screened the following day. Culture medium was removed by flicking the plates and the cells were loaded with 20 ul 1× membrane potential dye per well for 0.5 hours at 25° C. A two-addition protocol was used. The first addition was 5 ul 5× control or compound in 2.5% DMSO in assay buffer (0.5% [final]) read for 180 sec, and the second addition was 25 ul 2× control or 120 mM isometrically-substituted KCl in assay buffer (0-60 mM [final]) read for an additional 180 sec. Statistics were exported using the average of reads 180-200 and the maximum of reads 260-maximum allowed. Subtract bias was set at 1 and negative control correction was OFF. Control columns ½ and 23/24 are described starting on pg. 53 of this document. Inset: Screenshot of group averages for the control and compound wells highlighted in the primary data screen.
The 3222 unique members of the BioFocus SoftFocus Ion Channel Libraries #1-4 (#SF101-04) were screened in 384-well four-point mode against ShaI/KChIP at 10 uM in a combined activator and antagonist screen. The same FLIPR protocol was used as for the BIOMOL screening and was carried out over four non-consecutive days. The following compound preparation protocol was used to prepare screening plates: Briefly, ShaI-KChIP cells were seeded in 384-well plates at 7500 cells/well in 50 ul and incubated overnight at 37° C./5% CO2. The next day, culture medium was removed, 20 ul of 1×FMP dye was added, and the cell plate was incubated at 27° C. for 30 minutes. After incubation, the cell plate was placed into the Tetra and a two-addition protocol was used. The 1st addition was 5 μl of 5× compound (50 μM) with a three minute read. […] The 2nd addition was 25 ul of 2× activation buffer (120 mM isometric KCl substitution for NaCl) and read for an additional two minutes. […]

[4] = target: SK2 channel (Homo sapiens, UniProt Q9H2S1); details: patch clamp; cited from earlier work
[5] = target: T4, octopamine receptor (OctR, CG6919 dmOa2) (Drosophila melanogaster, UniProt Q9VCZ3); assay: OctR clone 55 FLIPR Fluo-4 calcium assay; type: cell-based; details: clone 55, same as published cAMP data
T4 construct: expressed in transfected cells; host or cells: CHO stably expressing G-alpha-16
Method: FIG. 62. Cells were plated at 10K/well in 384 well plates and allowed to incubate overnight at […]. The cells were assayed 18-24 hours after seeding. Media was removed and cells were dye loaded for 60 minutes with 2 μM Fluo-4. After 1 hour, dye was removed and 20 μl of buffer added to the plate and placed into FLIPR. The 1st addition was antagonist dose response curves and the 2nd addition was agonist dose response curves. Antagonists were challenged with 100 nM Octopamine. In addition, these compounds were tested in the parental cell line CHO-Galpha16.
Cells were plated at 10,000 cells/well in 50 μl into 384-well black TC plates and allowed to incubate overnight at 37° C./5% CO2. The cells were assayed 18-24 hours after seeding. Culture medium was removed by flicking and cells were dye loaded for 60 minutes with 20 μl of 2 μM Fluo-4 in assay buffer plus probenecid at 25° C. After one hour dye was removed by flicking and 20 μL of assay buffer was added, wait 5 min prior to placing into the FLIPR and run using a two-addition protocol. The first addition (20 ul, 2×) was 0.5% DMSO final in assay buffer. The second addition (20 ul, 3×) was either assay buffer or 100 nM octopamine final.

C=C[C@H]1CN2CC[C@@H]1CC2[C@@H](O)c1ccnc2ccc(OC)cc12 (stereo in doubt) [quinidine, (2-ethenyl-4-azabicyclo[2.2.2]oct-5-yl)-(6-methoxyquinolin-4-yl)-methanol]
inhibition of KCl depolarization [1]: dose dependent inhibition

COC(=O)C1=C(C)NC(C)=C([N+](=O)[O-])C1c1ccccc1C(F)(F)F (stereo not drawn) [Bay K8644]
inhibition of KCl depolarization [1]: dose dependent inhibition

O=C(NCC1CCCCN1)c1cc(OCC(F)(F)F)ccc1OCC(F)(F)F (stereo not drawn) [Flecainide]
inhibition of KCl depolarization [1]: did not show any inhibition

[Cl-].[K+] [KCl, reference compound]
Activator concentration (~EC80) ([2]; in Activation buffer, high-throughput screening parameter): ~50 mM | pEC50 ([3]; ShaI/KChIP 18-13 cells, isometrically-substituted KCl, fixed top response, read-out: EC50): 1.52 | pEC50 ([3]; ShaI/KChIP 20 cells, three days, standard deviation 5 mM, read-out: EC50 mean): 1.44

CC[N+](CC)(CC)CC [TEA, Tetraethylammonium]
effect on KCl stimulation [2]: blocking effect is visible

CN(C)CCC=C1c2ccccc2CCc2ccccc21 [amitriptyline]
block of SK2 channel currents [4]: micro-molar affinity

NC(=O)N1c2ccccc2C=Cc2ccccc21 [carbamazepine]
block of SK2 channel currents [4]: micro-molar affinity

Clc1cccc(Cl)c1N=C1NCCN1 [clonidine]
rank order of potency (agonists) [5]: naphazoline>octopamine>amitraz>clonidine>tolazoline

c1ccc2c(CC3=NCCN3)cccc2c1 [naphazoline]
rank order of potency (agonists) [5]: naphazoline>octopamine>amitraz>clonidine>tolazoline

COC(=O)C1=C(C)NC(C)=C(C(=O)OCCN(C)Cc2ccccc2)C1c1cccc([N+](=O)[O-])c1 (stereo not drawn) [nicardipine]
inhibition of KCl depolarization [1]: dose dependent inhibition

O=C(O)c1cccnc1Nc1cccc(C(F)(F)F)c1 [niflumic acid]
inhibition of KCl depolarization [1]: dose dependent inhibition

Nc1c2c(nc3ccccc13)CCCC2 [tacrine]
block of SK2 channel currents [4]: micro-molar affinity

c1ccc(CC2=NCCN2)cc1 [tolazoline]
rank order of potency (agonists) [5]: naphazoline>octopamine>amitraz>clonidine>tolazoline

Reference: patent US9029080B2, “Screening assay for insecticides” (priority 2008, dated 2015)
